From publication PMC4230943, “Mimicking Hypoxia to Treat Anemia: HIF-Stabilizer BAY 85-3934 (Molidustat) Stimulates Erythropoietin Production without Hypertensive Effects” (PLoS ONE, 2014)

What was measured:
male Wistar rats = assay: 26-day repeat-dose experiment, packed cell volume
Description: Male Wistar rats (240–340 g in body weight) were housed with five animals per cage for at least 1 week before experimentation. Blood samples from rats were collected under anesthesia (2% isoflurane in air) by puncturing the retro-orbital vein plexus with a glass capillary. In a repeat-dose, 26-day experiment, animals were administered vehicle or BAY 85-3934 at doses of 0.5 mg/kg, 1.25 mg/kg, 2.5 mg/kg, and 5 mg/kg. PCV was determined at baseline and at weekly intervals after centrifugation in a hematocrit capillary tube (Brand) for 10 min at full speed in a Haemofuge centrifuge (Heraeus). The number of reticulocytes in 5 µl blood was counted after staining with thiazol orange (Becton Dickinson) according to the manufacturer’s instructions by FACS analysis on a BD FACSCalibur system (Becton Dickinson). The efficacy of BAY 85-3934 (2.5 mg/kg, once-daily, oral) was also compared with that of rhEPO (25 IU/kg, 50 IU/kg, and 100 IU/kg, twice-weekly, s.c. injection). The time-course of induction of EPO mRNA expression and plasma EPO was determined at baseline and 0.5 h, 1 h, 2 h, 4 h, 6 h, and 8 h after oral administration of a single dose of BAY 85-3934 (5 mg/kg).

[1] = system: male Wistar rats treated with gentamicin; assay: Gentamicin-induced kidney failure (renal anemia) model; type: in vivo, rat
Description: Male Wistar rats were treated once daily with gentamicin (Gibco/Invitrogen) at a dose of 100 mg/kg body weight via i.p. injection on 14 consecutive days, [35]. Control animals received injections of an equal volume of 0.9% saline. After gentamicin treatment, PCV was determined and animals were distributed to the vehicle or treatment groups with respect to equal mean PCV. On day 15, BAY 85-3934 was given orally once daily at doses of 1 mg/kg, 2.5 mg/kg, 5.0 mg/kg, and 10.0 mg/kg, five times weekly.
EPO was measured in plasma samples taken from rodents using a commercial ELISA kit (R&D Systems), according to the manufacturer’s instructions. Relative plasma EPO levels were given in picograms per milliliter. In cynomolgus monkeys, EPO was measured using a combination anti-human EPO ELISAs (R&D Systems and Roche Diagnostics), with human EPO as a standard. Values were given as units per liter. For determination of plasma prorenin from rats, a commercial ELISA (Oxford Biomedical Research) was used according to the manufacturer’s instructions. Hemoglobin in rodent blood samples was determined on a Cell-Dyn 3700 apparatus (Abbott Diagnostics). BAY 85-3934 plasma concentrations were determined after protein precipitation with acetonitrile/ammonium acetate using an internal standard, followed by separation using HPLC/mass spectrometry.
Total RNA was extracted from shock-frozen cell or tissue samples using the TRIzol method. Integrity of obtained RNA was checked on a Bioanalyzer (Agilent Technologies). For reverse transcription, 1 µg of total RNA was digested with RNase-free DNase I (Gibco) for 15 min at room temperature, and then reverse-transcribed using Promiscript (Promega GmbH) in a total reaction volume of 40 µl according to the standard protocol of the supplier. After inactivation of the enzyme by heating to 65°C for 15 min, the obtained cDNA was diluted to a final volume of 150 µl with double-distilled water, and 4 µl used per PCR reaction. qRT-PCR, including normalization of raw data to cytosolic β-actin, was carried out as described previously. The resulting expression is given in arbitrary units.
The effect of BAY 85-3934 on the induction of endogenous EPO production was evaluated in an animal model of impaired kidney function, the gentamicin-induced kidney failure model. A mean creatinine clearance of 30% of that of untreated animals and high expression levels of several markers of acute and chronic kidney injury were indicative of substantial renal impairment in these animals. […] The mean absolute levels of induction were lower in the gentamicin-treated animals than in the controls.

[2] = system: rats and cynomolgus monkeys; assay: Adverse events in all animal experiments reported; type: in vivo; conditions: all of the experiments reported
Description: All procedures conformed to national legislation (dt. Tierschutzgesetz v. 18.05.2006) and EU directives (86/609) for the use of animals for scientific purposes and were approved by the institutional animal care office of Bayer AG and by the competent regional authority (LANUV Recklinghausen). All surgical procedures were performed under deep anesthesia (2% isoflurane) with immediate post-operative analgesia (ketamine/carprofen), and all efforts were made to minimize suffering. Rats were sacrificed by exposure to 10% isoflurane and consecutive cervical dislocation. Standard laboratory diet and tap water were available ad libitum. Rats were provided with wood sticks for chewing and gnawing, and monkeys were provided with appropriate toys such as balls and climbing bars. Animals were housed in temperature- and humidity-controlled cages with a 12 h light/dark cycle. In each experiment, the number of animals used was minimized. Animals were either randomly assigned to experimental groups or, if appropriate, were assigned based on hematocrit levels.

O=c1c(-n2ccnn2)c[nH]n1-c1cc(N2CCOCC2)ncn1 [BAY 85-3934, 2-[6-(morpholin-4-yl)pyrimidin-4-yl]-4-(1H-1,2,3-triazol-1-yl)-1,2-dihydro-3H-pyrazol-3-one]
gain in mean PCV (male Wistar rats; 1.25 mg/kg once daily, by day 26): approximately 3% | mean PCV gain from baseline (male Wistar rats; 5 mg/kg once daily, 26 days): 17% | tolerability (male Wistar rats; 0.5–5 mg/kg, 26 days): well tolerated | dose from which mean PCV is significantly elevated versus vehicle (male Wistar rats; once daily oral, 26 days): ≥ 1.25 mg/kg | time after onset of treatment for mean PCV to return to baseline ([1]; 2.5 mg/kg): ≤ 2 weeks | mean PCV ([1]; 5 mg/kg and 10 mg/kg, 5 days per week, final values higher than control, p<0.001): prevented the decline in mean PCV | kidney EPO mRNA expression ([1]; 4 h after oral administration): increased dose-dependently | plasma EPO levels ([1]; 4 h after oral administration): significantly and dose-dependently induced | hemoglobin values ([1]; 7 days after the start of treatment): significant dose-dependent increase | reticulocyte counts ([1]; all doses, data not shown): increase in reticulocyte counts | doses giving significant induction of liver EPO mRNA ([1]; control group (no gentamicin)): ≥ 2.5 mg/kg | doses giving significant induction of liver EPO mRNA ([1]; gentamicin-treated animals): ≥ 5 mg/kg | expression of other HIF target genes in kidney and liver ([1]; oral administration): no dose-response | adverse events related to treatment [2]: no significant adverse events
